Measured values taken from ChEMBL document CHEMBL5463729, “Data for DCP probe BAY 1753011” (2023).
The source made the active and inactive calls. The rule behind the calls is not given here.

How the values were obtained:
[1] = biological target: Tyrosine-protein kinase ABL2 (Homo sapiens) (UniProt P42684); experiment: Inhibition of Arg(h) at 10.0 µM in the Eurofins Kinase panel; conditions: Compound concentration 10.0 uM
[2] = biological target: Calcium/calmodulin-dependent protein kinase kinase 2 (Homo sapiens) (UniProt Q96RR4); experiment: Inhibition of CaMKK2(h) at 10.0 µM in the Eurofins Kinase panel; conditions: Compound concentration 10.0 uM
[3] = biological target: Rhodopsin kinase GRK1 (Homo sapiens) (UniProt Q15835); experiment: Inhibition of GRK1(h) at 10.0 µM in the Eurofins Kinase panel; conditions: Compound concentration 10.0 uM
[4] = biological target: Casein kinase I isoform delta (Homo sapiens) (UniProt P48730); experiment: Inhibition of CK1delta(h) at 10.0 µM in the Eurofins Kinase panel; conditions: Compound concentration 10.0 uM
[5] = biological target: B2 bradykinin receptor (Homo sapiens) (UniProt P30411); conditions: Compound concentration 10.0 uM
[6] = biological target: Serine/threonine-protein kinase 25 (Homo sapiens) (UniProt O00506); experiment: Inhibition of STK25(h) at 10.0 µM in the Eurofins Kinase panel; conditions: Compound concentration 10.0 uM
[7] = biological target: Phosphatidylinositol 5-phosphate 4-kinase type-2 alpha (Homo sapiens) (UniProt P48426); experiment: Inhibition of PIP4K2a(h) at 10.0 µM in the Eurofins Kinase panel; conditions: Compound concentration 10.0 uM
[8] = biological target: Serine/threonine-protein kinase tousled-like 2 (Homo sapiens) (UniProt Q86UE8); experiment: Inhibition of TLK2(h) at 10.0 µM in the Eurofins Kinase panel; conditions: Compound concentration 10.0 uM
[9] = biological target: Casein kinase II subunit alpha' (Homo sapiens) (UniProt P19784); experiment: Inhibition of CK2alpha2(h) at 10.0 µM in the Eurofins Kinase panel; conditions: Compound concentration 10.0 uM
[10] = biological target: Dual specificity mitogen-activated protein kinase kinase 3 (Homo sapiens) (UniProt P46734); experiment: Inhibition of MKK3(h) at 10.0 µM in the Eurofins Kinase panel; conditions: Compound concentration 10.0 uM
[11] = biological target: Serine/threonine-protein kinase PLK1 (Homo sapiens) (UniProt P53350); experiment: Inhibition of Plk1(h) at 10.0 µM in the Eurofins Kinase panel; conditions: Compound concentration 10.0 uM
[12] = biological target: Tyrosine-protein kinase CSK (Homo sapiens) (UniProt P41240); experiment: Inhibition of CSK(h) at 10.0 µM in the Eurofins Kinase panel; conditions: Compound concentration 10.0 uM
[13] = biological target: CDK9/cyclin T1 (Homo sapiens) (UniProt O60563+P50750); experiment: Inhibition of CDK9/cyclin T1(h) at 10.0 µM in the Eurofins Kinase panel; format: protein-complex assay; conditions: Compound concentration 10.0 uM
[14] = biological target: Phosphatidylinositol 4-phosphate 5-kinase type-1 alpha (Homo sapiens) (UniProt Q99755); experiment: Inhibition of PIP5K1a(h) at 10.0 µM in the Eurofins Kinase panel; conditions: Compound concentration 10.0 uM
[15] = biological target: Serine/threonine-protein kinase MARK2 (Homo sapiens) (UniProt Q7KZI7); experiment: Inhibition of PAR-1Balpha(h) at 10.0 µM in the Eurofins Kinase panel; conditions: Compound concentration 10.0 uM
[16] = biological target: Mitogen-activated protein kinase 13 (Homo sapiens) (UniProt O15264); experiment: Inhibition of SAPK4(h) at 10.0 µM in the Eurofins Kinase panel; conditions: Compound concentration 10.0 uM
[17] = biological target: Non-receptor tyrosine-protein kinase TYK2 (Homo sapiens) (UniProt P29597); experiment: Inhibition of TYK2(h) at 10.0 µM in the Eurofins Kinase panel; conditions: Compound concentration 10.0 uM
[18] = biological target: Cyclin-dependent kinase-like 1 (Homo sapiens) (UniProt Q00532); experiment: Inhibition of CDKL1(h) at 10.0 µM in the Eurofins Kinase panel; conditions: Compound concentration 10.0 uM
[19] = biological target: TGF-beta receptor type-1 (Homo sapiens) (UniProt P36897); experiment: Inhibition of TGFBR1(h) at 10.0 µM in the Eurofins Kinase panel; conditions: Compound concentration 10.0 uM
[20] = biological target: Proto-oncogene tyrosine-protein kinase receptor Ret (Homo sapiens) (UniProt P07949); experiment: Inhibition of Ret(h) at 10.0 µM in the Eurofins Kinase panel; conditions: Compound concentration 10.0 uM
[21] = biological target: Serine/threonine-protein kinase Nek9 (Homo sapiens) (UniProt Q8TD19); experiment: Inhibition of NEK9(h) at 10.0 µM in the Eurofins Kinase panel; conditions: Compound concentration 10.0 uM
Oxytocin receptor = biological target: T1, Oxytocin receptor (Homo sapiens, UniProt P30559); experiment: Radiometric OXTR binding assay (Eurofins #260900)
T1 sequence (P30559 whole entry): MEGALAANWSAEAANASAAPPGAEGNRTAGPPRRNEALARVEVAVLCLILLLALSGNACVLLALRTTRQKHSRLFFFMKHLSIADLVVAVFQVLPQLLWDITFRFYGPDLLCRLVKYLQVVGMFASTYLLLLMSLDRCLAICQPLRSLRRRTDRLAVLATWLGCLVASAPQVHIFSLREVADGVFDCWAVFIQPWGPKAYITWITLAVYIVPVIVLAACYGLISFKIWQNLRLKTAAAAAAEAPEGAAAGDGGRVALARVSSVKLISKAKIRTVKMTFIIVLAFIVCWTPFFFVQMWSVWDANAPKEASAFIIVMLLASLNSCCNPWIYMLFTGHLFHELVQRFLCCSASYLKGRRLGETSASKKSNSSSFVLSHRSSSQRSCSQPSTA

[22] = biological target: Sodium-dependent noradrenaline transporter (Homo sapiens, UniProt P23975); conditions: Compound concentration 10.0 uM
[23] = biological target: Tyrosine-protein kinase Lyn (Homo sapiens) (UniProt P07948); experiment: Inhibition of Lyn(h) at 10.0 µM in the Eurofins Kinase panel; conditions: Compound concentration 10.0 uM
[24] = biological target: Serine/threonine-protein kinase STK11 (Homo sapiens) (UniProt Q15831); experiment: Inhibition of LKB1(h) at 10.0 µM in the Eurofins Kinase panel; conditions: Compound concentration 10.0 uM
[25] = biological target: T2, Oxytocin receptor (Homo sapiens) (UniProt P30559); experiment: Inhibition of Oxytocin at 1 µM in the Eurofins-Panlabs radioligand binding assay (Eurofins_assay_260900); design: ligand concentration 0.8 nM, non-specific ligand with concentration 1 µM Oxytocin, incubation time 2 h, incubation temperature 25°C
T2 sequence (whole entry): T1 sequence (P30559 whole entry)

[26] = biological target: Protein kinase C gamma type (Homo sapiens) (UniProt P05129); experiment: Inhibition of PKCgamma(h) at 10.0 µM in the Eurofins Kinase panel; conditions: Compound concentration 10.0 uM
Vasopressin V1b receptor = Vasopressin V1b receptor (Homo sapiens, UniProt P47901); experiment: Radiometric AVPR1B binding assay (Eurofins #287560)
[27] = biological target: Serine/threonine-protein kinase PAK 6 (Homo sapiens) (UniProt Q9NQU5); experiment: Inhibition of PAK6(h) at 10.0 µM in the Eurofins Kinase panel; conditions: Compound concentration 10.0 uM
[28] = biological target: PI3-kinase p110-delta/p85-alpha (Homo sapiens) (UniProt P27986+O00329); experiment: Inhibition of PI3 Kinase (p110d/p85a)(h) at 10.0 µM in the Eurofins Kinase panel; format: protein-complex assay; conditions: Compound concentration 10.0 uM
[29] = biological target: Type-2 angiotensin II receptor (Homo sapiens) (UniProt P50052); conditions: Compound concentration 10.0 uM
[30] = biological target: NUAK family SNF1-like kinase 1 (Homo sapiens) (UniProt O60285); experiment: Inhibition of ARK5(h) at 10.0 µM in the Eurofins Kinase panel; conditions: Compound concentration 10.0 uM
[31] = biological target: 5-hydroxytryptamine receptor 7 (Homo sapiens) (UniProt P34969); conditions: Compound concentration 10.0 uM
[32] = biological target: Serine/threonine-protein kinase 3 (Homo sapiens) (UniProt Q13188); experiment: Inhibition of MST2(h) at 10.0 µM in the Eurofins Kinase panel; conditions: Compound concentration 10.0 uM

Sodium-dependent noradrenaline transporter, sequence (P23975 whole entry): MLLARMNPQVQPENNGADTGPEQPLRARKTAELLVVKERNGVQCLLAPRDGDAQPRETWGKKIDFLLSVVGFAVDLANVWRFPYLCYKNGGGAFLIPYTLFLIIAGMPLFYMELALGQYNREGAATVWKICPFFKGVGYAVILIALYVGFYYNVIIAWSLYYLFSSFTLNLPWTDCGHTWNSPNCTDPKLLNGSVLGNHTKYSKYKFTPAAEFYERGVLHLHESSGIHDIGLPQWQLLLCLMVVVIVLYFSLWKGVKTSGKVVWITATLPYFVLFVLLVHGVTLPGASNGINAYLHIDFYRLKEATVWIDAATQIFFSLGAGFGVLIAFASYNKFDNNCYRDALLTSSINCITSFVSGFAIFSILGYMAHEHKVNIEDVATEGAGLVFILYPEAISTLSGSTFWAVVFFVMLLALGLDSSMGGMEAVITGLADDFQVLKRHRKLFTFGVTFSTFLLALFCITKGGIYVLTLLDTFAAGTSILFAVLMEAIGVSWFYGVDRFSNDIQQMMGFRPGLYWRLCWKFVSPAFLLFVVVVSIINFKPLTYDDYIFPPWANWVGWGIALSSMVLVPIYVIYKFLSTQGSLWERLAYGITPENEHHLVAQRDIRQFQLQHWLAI
5-hydroxytryptamine receptor 7 (Homo sapiens), sequence (P34969 whole entry): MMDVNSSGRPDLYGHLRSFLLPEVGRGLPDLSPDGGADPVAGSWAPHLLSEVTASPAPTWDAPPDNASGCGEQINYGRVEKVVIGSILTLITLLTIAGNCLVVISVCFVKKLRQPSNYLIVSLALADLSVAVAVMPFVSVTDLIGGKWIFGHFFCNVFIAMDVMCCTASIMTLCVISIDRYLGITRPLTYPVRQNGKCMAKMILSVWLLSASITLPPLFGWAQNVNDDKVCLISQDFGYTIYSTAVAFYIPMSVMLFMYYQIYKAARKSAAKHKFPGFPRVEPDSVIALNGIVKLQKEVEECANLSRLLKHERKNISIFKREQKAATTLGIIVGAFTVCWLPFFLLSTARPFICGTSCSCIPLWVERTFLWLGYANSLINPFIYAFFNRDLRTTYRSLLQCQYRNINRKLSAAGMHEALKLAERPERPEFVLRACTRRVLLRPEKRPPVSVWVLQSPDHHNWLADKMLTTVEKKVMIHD
Serine/threonine-protein kinase 25 (Homo sapiens), sequence (O00506 whole entry, looked up): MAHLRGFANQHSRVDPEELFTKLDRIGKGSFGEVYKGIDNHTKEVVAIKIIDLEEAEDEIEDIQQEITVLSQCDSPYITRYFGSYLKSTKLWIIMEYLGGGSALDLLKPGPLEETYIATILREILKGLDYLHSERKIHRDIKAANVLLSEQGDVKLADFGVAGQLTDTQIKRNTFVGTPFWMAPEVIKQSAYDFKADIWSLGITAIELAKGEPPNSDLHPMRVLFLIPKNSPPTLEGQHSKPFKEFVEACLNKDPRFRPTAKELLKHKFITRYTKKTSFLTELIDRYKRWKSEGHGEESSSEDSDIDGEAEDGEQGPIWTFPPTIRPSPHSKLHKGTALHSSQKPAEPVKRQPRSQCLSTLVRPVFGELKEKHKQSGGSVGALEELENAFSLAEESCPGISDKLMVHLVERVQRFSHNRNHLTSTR
Cyclin-dependent kinase-like 1 (Homo sapiens), sequence (Q00532 whole entry): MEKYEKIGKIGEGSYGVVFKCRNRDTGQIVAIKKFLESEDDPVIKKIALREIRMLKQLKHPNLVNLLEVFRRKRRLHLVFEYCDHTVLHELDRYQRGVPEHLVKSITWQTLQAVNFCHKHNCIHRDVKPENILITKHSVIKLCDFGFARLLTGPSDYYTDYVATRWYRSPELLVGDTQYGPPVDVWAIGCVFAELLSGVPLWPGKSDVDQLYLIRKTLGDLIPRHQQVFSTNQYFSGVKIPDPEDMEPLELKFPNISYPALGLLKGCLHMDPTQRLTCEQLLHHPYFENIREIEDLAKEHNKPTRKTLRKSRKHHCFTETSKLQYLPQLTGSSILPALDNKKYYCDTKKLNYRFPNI
Rhodopsin kinase GRK1 (Homo sapiens), sequence (Q15835 whole entry, canonical isoform): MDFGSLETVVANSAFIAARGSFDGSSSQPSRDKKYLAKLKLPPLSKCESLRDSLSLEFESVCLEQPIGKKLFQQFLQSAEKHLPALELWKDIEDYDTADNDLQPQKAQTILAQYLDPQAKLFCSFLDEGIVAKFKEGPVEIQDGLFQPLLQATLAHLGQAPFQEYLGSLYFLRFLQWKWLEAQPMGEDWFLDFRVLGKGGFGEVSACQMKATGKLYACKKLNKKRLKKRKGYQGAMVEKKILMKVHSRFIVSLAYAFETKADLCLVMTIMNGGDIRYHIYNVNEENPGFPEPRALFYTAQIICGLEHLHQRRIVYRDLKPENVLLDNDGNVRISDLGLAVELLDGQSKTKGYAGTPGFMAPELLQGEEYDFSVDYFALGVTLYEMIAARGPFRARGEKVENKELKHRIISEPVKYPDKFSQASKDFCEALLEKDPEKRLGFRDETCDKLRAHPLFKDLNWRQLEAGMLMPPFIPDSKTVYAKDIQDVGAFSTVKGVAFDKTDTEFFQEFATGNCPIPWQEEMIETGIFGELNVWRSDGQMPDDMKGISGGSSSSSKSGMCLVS
Non-receptor tyrosine-protein kinase TYK2 (Homo sapiens), sequence (P29597 whole entry): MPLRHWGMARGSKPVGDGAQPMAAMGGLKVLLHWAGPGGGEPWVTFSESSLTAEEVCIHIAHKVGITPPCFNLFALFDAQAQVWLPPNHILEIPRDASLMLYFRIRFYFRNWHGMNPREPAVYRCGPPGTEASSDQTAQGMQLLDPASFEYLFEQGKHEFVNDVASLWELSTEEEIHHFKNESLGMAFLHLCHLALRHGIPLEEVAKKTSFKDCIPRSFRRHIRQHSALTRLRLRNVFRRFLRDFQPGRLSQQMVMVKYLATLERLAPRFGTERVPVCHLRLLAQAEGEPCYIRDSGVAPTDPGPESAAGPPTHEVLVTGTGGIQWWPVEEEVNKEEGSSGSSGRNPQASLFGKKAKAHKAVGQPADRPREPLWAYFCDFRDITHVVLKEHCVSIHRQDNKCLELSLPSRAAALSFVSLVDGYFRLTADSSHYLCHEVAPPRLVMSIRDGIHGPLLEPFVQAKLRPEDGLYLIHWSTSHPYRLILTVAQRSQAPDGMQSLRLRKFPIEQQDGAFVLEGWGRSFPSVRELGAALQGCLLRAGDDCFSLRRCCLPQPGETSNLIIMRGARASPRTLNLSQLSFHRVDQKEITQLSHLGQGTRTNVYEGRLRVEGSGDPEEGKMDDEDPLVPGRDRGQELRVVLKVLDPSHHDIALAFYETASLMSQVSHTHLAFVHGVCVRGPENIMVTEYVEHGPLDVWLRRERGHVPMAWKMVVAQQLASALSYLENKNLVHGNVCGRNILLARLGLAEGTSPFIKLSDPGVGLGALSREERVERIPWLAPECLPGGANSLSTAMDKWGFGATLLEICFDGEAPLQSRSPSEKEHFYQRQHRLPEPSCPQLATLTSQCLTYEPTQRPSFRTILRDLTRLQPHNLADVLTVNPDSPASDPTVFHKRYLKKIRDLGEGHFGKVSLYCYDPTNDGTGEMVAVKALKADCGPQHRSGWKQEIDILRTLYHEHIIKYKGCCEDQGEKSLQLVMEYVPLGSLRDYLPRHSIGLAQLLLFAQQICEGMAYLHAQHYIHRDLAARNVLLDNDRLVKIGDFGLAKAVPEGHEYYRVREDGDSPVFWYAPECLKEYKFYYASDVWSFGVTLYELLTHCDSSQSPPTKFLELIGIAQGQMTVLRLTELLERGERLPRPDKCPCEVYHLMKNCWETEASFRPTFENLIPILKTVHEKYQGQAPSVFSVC
Casein kinase II subunit alpha' (Homo sapiens), sequence (P19784 whole entry, looked up): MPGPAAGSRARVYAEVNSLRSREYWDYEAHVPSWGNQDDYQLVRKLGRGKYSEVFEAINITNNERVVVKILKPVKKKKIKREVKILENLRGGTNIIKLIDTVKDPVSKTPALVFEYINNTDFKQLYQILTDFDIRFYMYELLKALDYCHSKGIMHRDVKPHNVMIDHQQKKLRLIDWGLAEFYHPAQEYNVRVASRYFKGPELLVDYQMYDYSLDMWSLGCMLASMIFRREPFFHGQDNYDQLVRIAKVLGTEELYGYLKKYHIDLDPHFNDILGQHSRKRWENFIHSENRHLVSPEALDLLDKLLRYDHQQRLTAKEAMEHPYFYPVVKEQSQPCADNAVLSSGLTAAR
NUAK family SNF1-like kinase 1 (Homo sapiens), sequence (O60285 whole entry): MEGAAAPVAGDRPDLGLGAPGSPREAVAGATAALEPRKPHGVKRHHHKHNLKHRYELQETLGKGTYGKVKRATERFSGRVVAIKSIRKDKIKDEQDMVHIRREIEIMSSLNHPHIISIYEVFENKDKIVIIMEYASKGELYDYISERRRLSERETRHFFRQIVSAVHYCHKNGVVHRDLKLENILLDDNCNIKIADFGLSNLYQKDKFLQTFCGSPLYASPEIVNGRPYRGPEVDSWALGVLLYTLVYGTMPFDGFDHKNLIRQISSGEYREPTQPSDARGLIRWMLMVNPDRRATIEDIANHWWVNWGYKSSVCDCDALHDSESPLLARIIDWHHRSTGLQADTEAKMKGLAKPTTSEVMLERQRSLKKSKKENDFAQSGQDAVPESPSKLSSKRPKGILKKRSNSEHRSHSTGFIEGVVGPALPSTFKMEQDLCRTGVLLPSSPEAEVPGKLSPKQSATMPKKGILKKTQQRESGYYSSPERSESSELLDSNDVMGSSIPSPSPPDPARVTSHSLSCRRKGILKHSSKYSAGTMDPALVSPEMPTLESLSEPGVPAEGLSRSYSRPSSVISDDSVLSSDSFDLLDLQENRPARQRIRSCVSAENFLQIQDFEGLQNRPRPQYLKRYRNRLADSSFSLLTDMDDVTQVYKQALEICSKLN
Mitogen-activated protein kinase 13 (Homo sapiens), sequence (O15264 whole entry): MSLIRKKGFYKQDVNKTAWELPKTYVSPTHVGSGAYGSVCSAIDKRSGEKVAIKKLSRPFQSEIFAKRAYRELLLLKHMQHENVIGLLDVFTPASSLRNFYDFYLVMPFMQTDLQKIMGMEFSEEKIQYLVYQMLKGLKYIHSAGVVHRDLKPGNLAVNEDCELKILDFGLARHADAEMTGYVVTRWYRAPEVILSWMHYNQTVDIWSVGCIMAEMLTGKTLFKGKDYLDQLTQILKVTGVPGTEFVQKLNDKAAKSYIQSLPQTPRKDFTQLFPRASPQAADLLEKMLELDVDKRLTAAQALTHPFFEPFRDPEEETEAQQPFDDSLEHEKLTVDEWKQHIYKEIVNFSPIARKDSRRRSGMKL

SMILES	inhibition [1]	inhibition [2]	inhibition [3]	inhibition [4]	inhibition [5]	inhibition [6]	inhibition [7]	inhibition [8]	inhibition [9]	inhibition [10]	inhibition [11]	inhibition [12]	inhibition [13]	inhibition [14]	inhibition [15]	inhibition [16]	inhibition [17]	inhibition [18]	inhibition [19]	inhibition [20]	further results
O=c1n(Cc2cncn2-c2cccc(Cl)c2)nc(-c2ccc(Cl)cc2)n1C[C@H](O)C(F)(F)F	2.02%	-6.67%	-8.45%	-5.22%	-10%	6.35%	-2.76%	-6.55%	6.42%	-0.4%	-0.49%	-8.53%	-1.79%	-4.61%	5.49%	-3.8%	5.83%	6.34%	3.39%	-9.37%	inhibition [21]: 9.43%; Ki (Oxytocin receptor): > 10 µM (not active); inhibition [22]: 11%; inhibition [23]: -1.91%; inhibition [24]: 1.85%; inhibition ([25]; Compound concentration 10.0 uM): 12%; inhibition [26]: -1.26%; Ki (Vasopressin V1b receptor): > 10 µM (not active); inhibition [27]: -5.8%; inhibition [28]: -4.66%; inhibition [29]: -3%; inhibition [30]: -2.39%; inhibition [31]: -2%; inhibition [32]: -1.52%
C[C@H](O)c1nc(Cn2nc(-c3ccc(Cl)cc3)n(C[C@H](O)C(F)(F)F)c2=O)nn1-c1cccc(Cl)c1 [PECAVAPTAN]	-0.68%	-6.9%	6.58%	-3.11%	1%	9.04%	-0.83%	-5.51%	-3.46%	-0.58%	-2.91%	-8.59%	-3.05%	-9.11%	7.5%	-3.83%	8.75%	1.83%	5.09%	-9.36%	inhibition [21]: 7.88%; Ki (Oxytocin receptor): 0.0051 µM (active); inhibition [22]: 71.2%; inhibition [23]: -5.89%; inhibition [24]: -1.51%; inhibition ([25]; Compound concentration 0.0001 uM): 3%; inhibition ([25]; Compound concentration 0.001 uM): 6%; inhibition ([25]; Compound concentration 0.01 uM): 41%; inhibition ([25]; Compound concentration 0.1 uM): 84%; inhibition ([25]; Compound concentration 1.0 uM): 95%; inhibition [26]: 3.24%; Ki (Vasopressin V1b receptor): > 10 µM (not active); inhibition [27]: -4.81%; inhibition [28]: -1.36%; inhibition [29]: 4%; inhibition [30]: -3.57%; inhibition [31]: 17.6%; inhibition [32]: -2.77%
